For one compound, EC50 results are on record in BindingDB's records for doi:10.1016/j.bmcl.2017.08.043 (Vanderbilt University, 2017).

A word on the EC50: it is the concentration at which the effect is half-maximal.

For the assay, the target named is T1, Muscarinic acetylcholine receptor M4 (Homo sapiens, UniProt P08173).
T1 sequence (P08173 whole entry): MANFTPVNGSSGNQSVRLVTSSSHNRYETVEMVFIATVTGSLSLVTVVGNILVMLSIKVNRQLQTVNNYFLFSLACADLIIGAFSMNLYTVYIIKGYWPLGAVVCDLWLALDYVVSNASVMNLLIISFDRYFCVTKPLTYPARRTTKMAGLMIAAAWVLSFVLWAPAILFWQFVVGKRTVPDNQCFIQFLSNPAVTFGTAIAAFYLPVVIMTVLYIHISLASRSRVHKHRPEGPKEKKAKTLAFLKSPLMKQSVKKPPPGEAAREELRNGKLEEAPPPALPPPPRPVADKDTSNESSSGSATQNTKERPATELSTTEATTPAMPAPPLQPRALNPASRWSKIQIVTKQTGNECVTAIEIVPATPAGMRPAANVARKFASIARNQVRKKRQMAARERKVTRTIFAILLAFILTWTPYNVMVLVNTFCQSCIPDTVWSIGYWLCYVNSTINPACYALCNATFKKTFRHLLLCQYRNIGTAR
Nature of the assay: ChEBML_1696020. The text has this:
Positive allosteric modulation of human M4 receptor expressed in CHO cells co-expressing Gqi5 assessed as increase in acetylcholine-induced calcium mobilization

`N#Cc1cnc2ccc(F)cc2c1N1CCC(C(=O)NCc2ccccc2)CC1`: the EC50 amounted to 897 nM.
